Experimental data reported in PubChem BioAssay (NCI).
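Five compound concentrations were applied to cells in 96-well plates for 48 hours; endpoints were derived by simple linear interpolation of the resulting dose-response curve. At the GI50, growth is halved. At the TGI there is no net growth.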

test system: 786-0 renal; test: NCI-60 cell line screen, 48 h

SMILES | GI50 [µM] | TGI [µM]
O=C1c2ccn(CCCCNC(CO)(CO)CO)c2C(=O)c2c1c(O)c1ccccc1c2O | 2.29 | 6.05
COc1ccc(-c2cc(-c3cccn3C)c(C#N)c(N)n2)cc1OC | > 100 | > 100
CN1CCc2c(Sc3ccc(C(=O)NO)cc3)c3ccccc3n2C1 | 4.12 | 15.3
COc1ccc(CNc2c3ccccc3nc3ccccc23)cc1OC | 2.78 | 12.1
CN(C)c1ccc2nc3ccc(=O)cc-3sc2c1 | 2.06 | > 100
CC(=O)c1c(CBr)n([O-])c2ccccc2[n+]1=O | 5.59 | 17.7
O=C(Nc1ccc(Cl)cc1F)c1cc(Br)ccc1O | 2.58 | 7.43
COc1ccc(-n2cc(-c3ccc(Cl)c(Cl)c3)nc2SCc2cccc(C#N)c2)cc1 | 11.8 | 40.2
Nc1c(C(=O)N/N=C/c2ccc(-c3ccc(Cl)cc3)o2)cnn1-c1ccnc2c(C(F)(F)F)cccc12 | > 100 | > 100
Fc1ccc(Nc2cc(-n3nnc4ccccc43)nc3ccccc23)cc1 | 13.1 | > 49.9

test system: NCI-H23 lung; test: NCI-60 cell line screen, 48 h

SMILES | GI50 [µM] | TGI [µM]
O=C1c2ccn(CCCCNC(CO)(CO)CO)c2C(=O)c2c1c(O)c1ccccc1c2O | 3.01 | 7.78
COc1ccc(-c2cc(-c3cccn3C)c(C#N)c(N)n2)cc1OC | > 100 | > 100
CN1CCc2c(Sc3ccc(C(=O)NO)cc3)c3ccccc3n2C1 | 1.7 | 3.88
COc1ccc(CNc2c3ccccc3nc3ccccc23)cc1OC | 2.13 | 7.47
CN(C)c1ccc2nc3ccc(=O)cc-3sc2c1 | 0.82 | > 100
CC(=O)c1c(CBr)n([O-])c2ccccc2[n+]1=O | 15.7 | 32.6
O=C(Nc1ccc(Cl)cc1F)c1cc(Br)ccc1O | 0.659 | 4.69
COc1ccc(-n2cc(-c3ccc(Cl)c(Cl)c3)nc2SCc2cccc(C#N)c2)cc1 | 39.8 | > 100
Nc1c(C(=O)N/N=C/c2ccc(-c3ccc(Cl)cc3)o2)cnn1-c1ccnc2c(C(F)(F)F)cccc12 | > 100 | > 100
Fc1ccc(Nc2cc(-n3nnc4ccccc43)nc3ccccc23)cc1 | 49.2 | > 100

test system: UO-31 renal; test: NCI-60 cell line screen, 48 h

SMILES | GI50 [µM] | TGI [µM]
O=C1c2ccn(CCCCNC(CO)(CO)CO)c2C(=O)c2c1c(O)c1ccccc1c2O | 23.7 | > 100
COc1ccc(-c2cc(-c3cccn3C)c(C#N)c(N)n2)cc1OC | 98.3 | > 100
CN1CCc2c(Sc3ccc(C(=O)NO)cc3)c3ccccc3n2C1 | 2.33 | 14.9
COc1ccc(CNc2c3ccccc3nc3ccccc23)cc1OC | 1.17 | 5.05
CN(C)c1ccc2nc3ccc(=O)cc-3sc2c1 | 0.545 | > 74.5
CC(=O)c1c(CBr)n([O-])c2ccccc2[n+]1=O | 5.51 | 19
O=C(Nc1ccc(Cl)cc1F)c1cc(Br)ccc1O | 0.461 | 3.65
COc1ccc(-n2cc(-c3ccc(Cl)c(Cl)c3)nc2SCc2cccc(C#N)c2)cc1 | 35.2 | > 100
Nc1c(C(=O)N/N=C/c2ccc(-c3ccc(Cl)cc3)o2)cnn1-c1ccnc2c(C(F)(F)F)cccc12 | > 100 | > 100
Fc1ccc(Nc2cc(-n3nnc4ccccc43)nc3ccccc23)cc1 | > 55.9 | > 100

test system: DU-145 prostate; test: NCI-60 cell line screen, 48 h

SMILES | GI50 [µM] | TGI [µM]
O=C1c2ccn(CCCCNC(CO)(CO)CO)c2C(=O)c2c1c(O)c1ccccc1c2O | 1.89 | 4.69
COc1ccc(-c2cc(-c3cccn3C)c(C#N)c(N)n2)cc1OC | 91.6 | > 100
CN1CCc2c(Sc3ccc(C(=O)NO)cc3)c3ccccc3n2C1 | 2.57 | 9.37
COc1ccc(CNc2c3ccccc3nc3ccccc23)cc1OC | 2.8 | 8.43
CN(C)c1ccc2nc3ccc(=O)cc-3sc2c1 | 1.8 | 6.17
CC(=O)c1c(CBr)n([O-])c2ccccc2[n+]1=O | 12.8 | 25.5
O=C(Nc1ccc(Cl)cc1F)c1cc(Br)ccc1O | 1.89 | > 100
COc1ccc(-n2cc(-c3ccc(Cl)c(Cl)c3)nc2SCc2cccc(C#N)c2)cc1 | > 100 | > 100
Nc1c(C(=O)N/N=C/c2ccc(-c3ccc(Cl)cc3)o2)cnn1-c1ccnc2c(C(F)(F)F)cccc12 | > 100 | > 100
Fc1ccc(Nc2cc(-n3nnc4ccccc43)nc3ccccc23)cc1 | > 56.2 | > 100

test system: SK-MEL-2 melanoma; test: NCI-60 cell line screen, 48 h

SMILES | GI50 [µM] | TGI [µM]
O=C1c2ccn(CCCCNC(CO)(CO)CO)c2C(=O)c2c1c(O)c1ccccc1c2O | 31.6 | > 100
COc1ccc(-c2cc(-c3cccn3C)c(C#N)c(N)n2)cc1OC | > 100 | > 100
CN1CCc2c(Sc3ccc(C(=O)NO)cc3)c3ccccc3n2C1 | 2.01 | 4.55
COc1ccc(CNc2c3ccccc3nc3ccccc23)cc1OC | 2.28 | 6.4
CN(C)c1ccc2nc3ccc(=O)cc-3sc2c1 | 3.51 | 25.8
CC(=O)c1c(CBr)n([O-])c2ccccc2[n+]1=O | 14.4 | 30
O=C(Nc1ccc(Cl)cc1F)c1cc(Br)ccc1O | 0.467 | 3.18
COc1ccc(-n2cc(-c3ccc(Cl)c(Cl)c3)nc2SCc2cccc(C#N)c2)cc1 | > 100 | > 100
Nc1c(C(=O)N/N=C/c2ccc(-c3ccc(Cl)cc3)o2)cnn1-c1ccnc2c(C(F)(F)F)cccc12 | > 100 | > 100
Fc1ccc(Nc2cc(-n3nnc4ccccc43)nc3ccccc23)cc1 | 98.8 | > 100
